The results in this text go back to ChEMBL document CHEMBL5528017, “Design and synthesis of dual BRD4/Src inhibitors for treatment of triple-negative breast cancer” (Eur J Med Chem, 2024).

A value given as a limit tells only on which side of the number the result lay.

One may read the IC50 as the concentration that inhibits the measured activity by half.

The subject of one experiment is MDA-MB-231. Kind of experiment: cells. The note with it: Homo sapiens, MDA-MB-231, 72 h.
In experiment [1] the target is Bromodomain-containing protein 4 (Homo sapiens, UniProt O60885). The experiment is described as follows: Inhibition of His6-tagged recombinant BRD4 BD1 domain (44 to 168 residues) (unknown origin) expressed in Escherichia coli BL21(DE3) incubated for 0.5 hrs by FITC-labeled JQ1 based competitive fluorescence polarization assay. Background: In fluorescence polarisation assays a small probe gives low polarisation when free and higher when bound to something large.

Description for MDA-MB-231: Antiproliferative activity against human MDA-MB-231 cells assessed as inhibition of cell viability incubated for 72 hrs by CCK8 assay

On to `Cc1nc(Nc2ncc(C(=O)Nc3c(C)cccc3Cl)s2)cc(N2CCN(C(=O)C[C@@H]3N=Cc4c(sc(C)c4C)-n4c(C)nnc43)CC2)n1`, for which the IC50 in the experiment on MDA-MB-231 stood at 980 nM.
For `CSCC[C@H](NC(=O)C[C@@H]1N=C(c2ccc(Cl)cc2)c2c(sc(C)c2C)-n2c(C)nnc21)C(=O)OCCN1CCN(c2cc(Nc3ncc(C(=O)Nc4c(C)cccc4Cl)s3)nc(C)n2)CC1`, in the experiment on MDA-MB-231, half-maximal inhibition (IC50) was put at 58 nM.
Same read-out and setting: with `Cc1nc(Nc2ncc(C(=O)Nc3c(C)cccc3Cl)s2)cc(N2CCN(CCOC(=O)[C@@H]3CCCN3C(=O)C[C@@H]3N=C(c4ccc(Cl)cc4)c4c(sc(C)c4C)-n4c(C)nnc43)CC2)n1` the figure was 135 nM; with `Cc1nc(Nc2ncc(C(=O)Nc3c(C)cccc3Cl)s2)cc(N2CCN(CCOC(=O)C[C@@H]3N=C(c4ccc(Cl)cc4)c4c(sc(C)c4C)-n4c(C)nnc43)CC2)n1`, 52 nM.
`Cc1nc(Nc2ncc(C(=O)Nc3c(C)cccc3Cl)s2)cc(N2CCN(CCOC(=O)CNC(=O)C[C@@H]3N=C(c4ccc(Cl)cc4)c4c(sc(C)c4C)-n4c(C)nnc43)CC2)n1` showed an IC50 in the experiment with MDA-MB-231 of 22 nM.
As for `CC[C@H](C)[C@H](NC(=O)C[C@@H]1N=C(c2ccc(Cl)cc2)c2c(sc(C)c2C)-n2c(C)nnc21)C(=O)OCCN1CCN(c2cc(Nc3ncc(C(=O)Nc4c(C)cccc4Cl)s3)nc(C)n2)CC1`, the IC50 in the experiment on MDA-MB-231 was 340 nM; in experiment [1], greater than 1000 nM.
As for `Cc1nc(Nc2ncc(C(=O)Nc3c(C)cccc3Cl)s2)cc(N2CCN(CCOC(=O)[C@H](CC(=O)OC(C)(C)C)NC(=O)C[C@@H]3N=C(c4ccc(Cl)cc4)c4c(sc(C)c4C)-n4c(C)nnc43)CC2)n1`, half-maximal inhibition with MDA-MB-231 (IC50) required 122 nM.
Turning to `Cc1nc(Nc2ncc(C(=O)Nc3c(C)cccc3Cl)s2)cc(N2CCN(CCOC(=O)[C@@H]3CCCCN3C(=O)C[C@@H]3N=C(c4ccc(Cl)cc4)c4c(sc(C)c4C)-n4c(C)nnc43)CC2)n1`, the figures for the IC50 (in the experiment on MDA-MB-231; in experiment [1]) were 240 nM and greater than 1000 nM, respectively.
Turning to `Cc1nc(Nc2ncc(C(=O)Nc3c(C)cccc3Cl)s2)cc(N2CCN(C(=O)CCCCCNC(=O)C[C@@H]3N=C(c4ccc(Cl)cc4)c4c(sc(C)c4C)-n4c(C)nnc43)CC2)n1`, the half-inhibitory concentration (IC50) with MDA-MB-231 came out at 300 nM.
In turn, `Cc1nc(Nc2ncc(C(=O)Nc3c(C)cccc3Cl)s2)cc(N2CCN(C(=O)CCCCCCCNC(=O)C[C@@H]3N=C(c4ccc(Cl)cc4)c4c(sc(C)c4C)-n4c(C)nnc43)CC2)n1` had an IC50 in the experiment on MDA-MB-231 of 757 nM.
Still for that read-out and setting: next, `Cc1nc(Nc2ncc(C(=O)Nc3c(C)cccc3Cl)s2)cc(N2CCN(CCOC(=O)C(NC(=O)C[C@@H]3N=C(c4ccc(Cl)cc4)c4c(sc(C)c4C)-n4c(C)nnc43)C(C)C)CC2)n1` (some centres undefined): 172 nM; `Cc1nc(Nc2ncc(C(=O)Nc3c(C)cccc3Cl)s2)cc(N2CCN(CCOC(=O)CCCCCNC(=O)C[C@@H]3N=C(c4ccc(Cl)cc4)c4c(sc(C)c4C)-n4c(C)nnc43)CC2)n1`: 1080 nM; `Cc1nc(Nc2ncc(C(=O)Nc3c(C)cccc3Cl)s2)cc(N2CCN(CCOC(=O)[C@H](Cc3c[nH]c4ccccc34)NC(=O)C[C@@H]3N=C(c4ccc(Cl)cc4)c4c(sc(C)c4C)-n4c(C)nnc43)CC2)n1`: 95 nM.
`Cc1nc(Nc2ncc(C(=O)Nc3c(C)cccc3Cl)s2)cc(N2CCN(CCOC(=O)[C@H](CC(C)C)NC(=O)C[C@@H]3N=C(c4ccc(Cl)cc4)c4c(sc(C)c4C)-n4c(C)nnc43)CC2)n1` registered an IC50 in the experiment with MDA-MB-231 of 240 nM.
Still for that read-out and setting: with `Cc1nc(Nc2ncc(C(=O)Nc3c(C)cccc3Cl)s2)cc(N2CCN(C(=O)CCCNC(=O)C[C@@H]3N=C(c4ccc(Cl)cc4)c4c(sc(C)c4C)-n4c(C)nnc43)CC2)n1` the figure was 1330 nM; with `Cc1nc(Nc2ncc(C(=O)Nc3c(C)cccc3Cl)s2)cc(N2CCN(CCOC(=O)[C@H](Cc3ccccc3)NC(=O)C[C@@H]3N=C(c4ccc(Cl)cc4)c4c(sc(C)c4C)-n4c(C)nnc43)CC2)n1`, 197 nM; with `Cc1nc(Nc2ncc(C(=O)Nc3c(C)cccc3Cl)s2)cc(N2CCN(CCOC(=O)CCOCCOCCOCCNC(=O)C[C@@H]3N=C(c4ccc(Cl)cc4)c4c(sc(C)c4C)-n4c(C)nnc43)CC2)n1`, 167 nM.
